From US20120309699A1, “COMPOUNDS HAVING ANTI-INFLAMMATORY ACTIVITY” (Consejo Superior de Investigaciones Cientificas (CSIC), priority 2009, published 2012)
Entries after “also recorded” stand apart in the source; their conditions may differ.

Tests used:
[1] = tested on: TNFR1 (Tumor necrosis factor receptor, CD120a); assay: Antibody array in colonic mucosa: TNFR1 (DSS model); assay type: in vivo, mice; settings: after 8 days DSS, without recovery period; HED 10 mg
Description: (§1) A model for intestinal inflammation based on the administration of DSS (sodium dextran sulfate) to C57BL/6 mice was used. At the present time there is no consensus about which overall is the best model for experimental colitis. The DSS model has been widely used because it has clinical, morphological and analytical characteristics which up to a point are similar to those specific to patients with ulcerative colitis or Crohn's disease.
(§2) The in vivo inflammation test was carried out using duplicates separated by a number of months. In each test each group of animals (n=8) was fed a standard diet supplemented with 2.3 mg/day/kg (animal weight) of each of the compounds, depending upon the group. […]
(§3) • Monitoring of weight, food and drink ingestion. The mice in all groups were individually monitored, with weight, quantity of food ingested and water drunk each day being monitored throughout the experimental test. • Blood and water in feces. The water content of feces, as an indication of diarrhea, was evaluated using the difference in weight following evaporation in a stove. Blood was measured using reactive strips based on the guaiacol-peroxidase reaction (HealthCare Diagnosis Inc.). […] The reaction was measured using a scale from 0 (negative result) to 4 (most intense color change). • Length of colon. After sacrifice the colon was obtained from each mouse, extended and measured. […]

bifidobacteria = assay: Microbiota counts in feces: bifidobacteria; assay type: in vivo, mice; settings: after administration of DSS; HED 10 mg
Description: as §1
(§4) The in vivo inflammation test was carried out using duplicates separated by a number of months. In each test each group of animals (n=8) was fed a standard diet supplemented with 2.3 mg/day/kg (animal weight) of each of the compounds, depending upon the group. This dose assumes the ingestion of 0.05 mg/day (50 μg/day) per mouse (having a mean weight of 22 grams). This dose extrapolated to a human being is equivalent to 10 mg in an adult weighing 70 kg; using the formula HED (human equivalent dose)=animal dose in mg/kg×(animal weight kg/human weight in kg)^0.33.
(§5) In each test the mice were fed for 3 weeks during which 1% DSS was included in their drink. The DSS was maintained for 8 days (and the same food as from the start). Then the DSS was withdrawn and the animals were allowed to recover for another 6 days (again with the same food).
(§6) • Monitoring of weight, food and drink ingestion. The mice in all groups were individually monitored, with weight, quantity of food ingested and water drunk each day being monitored throughout the experimental test. • Blood and water in feces. The water content of feces, as an indication of diarrhea, was evaluated using the difference in weight following evaporation in a stove. Blood was measured using reactive strips based on the guaiacol-peroxidase reaction (HealthCare Diagnosis Inc.). […] The reaction was measured using a scale from 0 (negative result) to 4 (most intense color change). • Length of colon. After sacrifice the colon was obtained from each mouse, extended and measured. […] This was evaluated by spectrophotometry at 460 nm using O-dianisidine reagent and hydrogen peroxide. The change in absorbance at 460 nm was monitored over 10 minutes in a V-630 spectrophotometer (Jasco, Tokyo, Japan). MPO activity was expressed as mU of activity/mg of fresh tissue, comparing the increase in absorbance with a standard straight line obtained using leukocyte myeloperoxidase (Sigma). • Prostaglandins in colonic mucosa. Levels of PGE2 were measured in colonic mucosa homogenates using an immunoenzyme method using a Cayman Chem. kit (USA). • “Antibody array”. […] The signal was detected by chemoluminescence. […] Signal intensities (densitometry) were analyzed using ScanAlyze software. […] The changes in cytokine levels were expressed as mean±SD in arbitrary density units. […]

clostridia = assay: Microbiota counts in feces: clostridia; assay type: in vivo, mice; settings: pre-treatment, maintained after DSS; HED 10 mg
Description: as §1, §2, §3

Myeloperoxidase (MPO) = assay: Myeloperoxidase activity in colonic mucosa (DSS model); assay type: in vivo, mice; settings: after DSS; HED 10 mg
Description: as §1, §2, §3

E. coli = assay: Microbiota counts in feces: E. coli; assay type: in vivo, mice; settings: after administration of DSS; HED 10 mg
Description: as §1
as §4, with “kg)^0.33. […]” for “kg)^0.33.”
• Monitoring of weight, food and drink ingestion. The mice in all groups were individually monitored, with weight, quantity of food ingested and water drunk each day being monitored throughout the experimental test. • Blood and water in feces. The water content of feces, as an indication of diarrhea, was evaluated using the difference in weight following evaporation in a stove. Blood was measured using reactive strips based on the guaiacol-peroxidase reaction (HealthCare Diagnosis Inc.). […] The reaction was measured using a scale from 0 (negative result) to 4 (most intense color change). • Length of colon. After sacrifice the colon was obtained from each mouse, extended and measured. […] This was evaluated by spectrophotometry at 460 nm using O-dianisidine reagent and hydrogen peroxide. The change in absorbance at 460 nm was monitored over 10 minutes in a V-630 spectrophotometer (Jasco, Tokyo, Japan). […] Levels of PGE2 were measured in colonic mucosa homogenates using an immunoenzyme method using a Cayman Chem. kit (USA). • “Antibody array”. […] The signal was detected by chemoluminescence. […]

haptoglobin = assay: Systemic inflammation marker haptoglobin (DSS model); assay type: in vivo, mice; settings: vs DSS group; HED 10 mg
Description: as §1, §4, §5, §6

C57BL/6 mice = assay: DSS (sodium dextran sulfate) model for intestinal inflammation: colon length, weight, DAI, appearance, colonic architecture; assay type: in vivo; settings: for Conservation of colon length (shortening of the colon): 1% DSS for 8 days, diet supplemented with 2.3 mg/day/kg (HED 10 mg); for DAI (Disease Activity Index): 8 days with DSS and 6 days recovery; for DAI (Disease Activity Index) / General appearance of the mice / Weight change / Attenuation of damage in colonic mucosa (colonic architecture): HED 10 mg; for Rectal hemorrhage / General appearance of the mice: after 1% DSS for 8 days; for Weight change: after administration of DSS (day 21); for Attenuation of damage in colonic mucosa (colonic architecture): hematoxylin-eosin, during treatment with DSS
Description: as §1, §4, §5
Groups included in the investigation: control (standard food), control-DSS, DSS-resveratrol (RES), DSS-piceid (PIC), DSS-resveratrol-diglucoside (DIGLUC), DSS-piceid-butyrate (BUT), DSS-piceid-octanoate (OCT).
• Monitoring of weight, food and drink ingestion. The mice in all groups were individually monitored, with weight, quantity of food ingested and water drunk each day being monitored throughout the experimental test. • Blood and water in feces. The water content of feces, as an indication of diarrhea, was evaluated using the difference in weight following evaporation in a stove. Blood was measured using reactive strips based on the guaiacol-peroxidase reaction (HealthCare Diagnosis Inc.). The samples were diluted 1:50 in saline solution and applied to the reactive strips. After 60 sec the color was compared with the template provided by the manufacturer. The reaction was measured using a scale from 0 (negative result) to 4 (most intense color change). • Length of colon. After sacrifice the colon was obtained from each mouse, extended and measured. Samples of the colonic mucosa for various tests mentioned below were obtained by scraping. • Myeloperoxidase activity in colonic mucosa. This was evaluated by spectrophotometry at 460 nm using O-dianisidine reagent and hydrogen peroxide. The change in absorbance at 460 nm was monitored over 10 minutes in a V-630 spectrophotometer (Jasco, Tokyo, Japan). MPO activity was expressed as mU of activity/mg of fresh tissue, comparing the increase in absorbance with a standard straight line obtained using leukocyte myeloperoxidase (Sigma). • Prostaglandins in colonic mucosa. Levels of PGE2 were measured in colonic mucosa homogenates using an immunoenzyme method using a Cayman Chem. kit (USA). • “Antibody array”. The “antibody array” kit from RayBiotech (“RayBio Mouse Inflammation Antibody Array 1”) was used to determine cytokines in colonic tissue samples. The “RayBio Mouse inflammation antibody arrays” are a fast and accurate system for determining the expression profile of multiple cytokines (in this case 40) in a very sensitive way. The sensitivity is 100 times greater than that of the ELISA method. The measurement was made in duplicate following the manufacturer's instructions. Membranes were blocked with blocking buffer and then incubated with 300 μg of protein for 2 hours. Finally the membranes were incubated with a cocktail of antibodies conjugated with biotin and then radish peroxidase marked with streptavidin. The signal was detected by chemoluminescence. Images were captured using a CCD camera fitted to a Biorad Chemidoc XRS imaging station. Signal intensities (densitometry) were analyzed using ScanAlyze software. […]

Structure (SMILES)	Level of TNFR1 in colonic mucosa [1]	Bifidobacteria count in feces (bifidobacteria)	Population of clostridia in feces (clostridia)	Myeloperoxidase activity in colonic mucosa (Myeloperoxidase (MPO))	E. coli count in feces (E. coli)	Blood haptoglobin levels (haptoglobin)	Conservation of colon length (shortening of the colon) (C57BL/6 mice)	DAI (Disease Activity Index) (C57BL/6 mice)	Rectal hemorrhage (C57BL/6 mice)	General appearance of the mice (C57BL/6 mice)	Weight change (C57BL/6 mice)	Attenuation of damage in colonic mucosa (colonic architecture) (C57BL/6 mice)
CCCC(=O)OCC1OC(Oc2cc(O)cc(/C=C/c3ccc(O)cc3)c2)C(O)C(O)C1O [BUT, trans-resveratrol-3-O-(6′-O-butanoyl)-β-D-glucopyranoside]	values are similar to those for the control mice	continued the upward trend	increases the population	most obvious fall	clear reduction	most notable differences	least shortening of the colon	much less than in the remainder	no trace of rectal hemorrhage	OCT (D)≈BUT (C)>>RES≈DIGLUC≈PIC (B)>>control-DSS (A); also recorded: better appearance than the control-DSS	maintained the same weight as the control group	best preserved colonic architecture
CCCCCCCC(=O)OCC1OC(Oc2cc(O)cc(/C=C/c3ccc(O)cc3)c2)C(O)C(O)C1O [OCT, trans-resveratrol-3-O-(6′-O-octanoyl)-β-D-glucopyranoside]	values are similar to those for the control mice	continued the upward trend	increases the population	most obvious fall	clear reduction	most notable differences	least shortening of the colon	much less than in the remainder	no trace of rectal hemorrhage	OCT (D)≈BUT (C)>>RES≈DIGLUC≈PIC (B)>>control-DSS (A); also recorded: better appearance than the control-DSS	maintained the same weight as the control group	best preserved colonic architecture
